A short description of series [1]: Physical compatibility studies (mixtures in vials, visual). It is filed as physicochemical. The conditions noted are these: for compatibility with VDPA copolymer: in the presence of VDPA copolymer. The method, then: A first set of samples was made by combining Didecyldimethylammonium chloride (DDAC) Ammonium Quaternary Cationic Surfactant, and Tributyl Tetradecyl Phosphonium Chloride (TTPC). These ingredients were combined in a 20 mL borosilicate vial with a plastic cap to a total volume of 10 mLs so that the final concentration of DDAC was 5 wt. % active ingredient and the final concentration of TTPC was 1 wt. % active ingredient. The total volume was achieved by mixing with tap water (WTW). Samples were mixed, capped, and shaken vigorously and allowed to sit at room temperature for up to 24 hours. […] All weight percent values in the examples are wt. % active ingredient.
Another test sample consisted of 20 wt. % THPS, 2 wt. % VDPA copolymer biopenetrant, 4 wt. % DDAC, 4 wt. % TTPC, and 35 wt. % Ethylene Glycol Monobutyl Ether (EGMBE, which was used as a mutual solvent) (wt. % active ingredients) and was mixed as were the samples of Example 1 and brought to a total volume of 13.9 mLs with tap water (WTW).
(§1) Two additional samples were made. One was TTPC aqueous solution (50 wt. % a.i.) which was TTPC alone with the balance water (labelled TTPC). The other sample was made of 95 wt. % TTPC aqueous solution (50 wt. % a.i.) combined with a 5 wt. % VDPA copolymer aqueous solution (50 wt. % a.i.)(labelled TTPC+ESL). Thus, the final concentration on an active ingredient basis was 47.5% wt. % TTPC and 2.5 wt. % VDPA copolymer with the balance water. This comparison was made to determine the compatibility of the mixture without mutual solvent.

The next series deals with Pseudomonas aeruginosa. The experiment in a line: Biocidal efficacy study, Modified Robbins Device culture/biofilm. Type of series: cell-based. The conditions noted are these: 100 ppm dosed, FIG. 4. On the procedure: To test biocidal efficacy of TTPC in the presence of VDPA anionic copolymer two additional samples were made. One was 50 wt. % TTPC (a.i.) alone with the balance water (labelled TTPC). The other was TTPC combined with VDPA copolymer with the balance water (labelled TTPC A) which was 47.5% TTPC (a.i.) and 2.5% VDPA copolymer biopenetrant. A standard biofilm was grown with Pseudomonas aeruginosa, a known biofilm former and General Heterotrophic Bacteria (GHB), and treated with either the TTPC or TTPC A Series samples. Pseudomonas aeruginosa was cultured in a media of tryptone soy broth and grown at room temperature with gentle stirring. This culture solution was slowly passed through a Modified Robbins Device (MRD) from Tyler Research for approximately 6 weeks to establish a robust biofilm. Once the film was established, 100 ppm of TTPC Series or TTPC A Series was dosed to the biofilms and the efficacy of the biocide on the microorganisms was measured as shown in FIG. 4.

Series [2] in a line: Storage stability of TTPC+ESL mixture at different temperatures. The note with it: −25° C. It is filed as physicochemical.
Text: as §1
However, the sample was frozen at −25° C. TTPC was also frozen at −25 C.

As for `CCCCCCCCCC[N+](C)(C)CCCCCCCCCC.[Cl-]` [DDAC, Didecyldimethylammonium chloride], in series [1] (balance tap water (WTW), room temperature, up to 24 hours), the “physical compatibility / appearance in tap water” value is on record as “some cloudiness”. In addition, the “compatibility with VDPA copolymer” value in series [1] is “will precipitate”. Moreover, in series [1] (water), the solubility in water entry is listed as “sparingly soluble in water”.

On to `CCCCCCCCCCCCCC[P+](CCCC)(CCCC)CCCC.Cl` [TTPC, tributyl-tetradecylphosphonium chloride], for which the “efficacy against planktonic bacteria” value in the series with Pseudomonas aeruginosa is given as “effective”. Also, the “state of sample at low temperature” value in series [2] is “frozen”.

“alkyldimethylbenzylammonium chloride [ADBAC]”: in series [1], the “compatibility with VDPA copolymer” value is recorded as “will precipitate”.

These data come from patent publication US20200299155A1, “BIOCIDAL COMPOSITIONS INCLUDING A PHOSPHONIUM QUATERNARY CATIONIC SURFACTANT AND METHODS FOR USING SAME” (Rhodia Operations, priority 2019, published 2020).
